Among the data in ChEMBL document CHEMBL1141495, “Isoindol-1,3-dione and isoindol-1-one derivatives with high binding affinity to beta-amyloid fibrils” (Bioorg Med Chem Lett, 2008) are Ki values, retold here.

Molecules are shown by their SMILES.

This experiment is described as follows: Displacement of [125I]TZDM from beta amyloid 42 fibril. Background: Displacement assays read how much labelled ligand stays bound in the presence of the test substance.
In general, Ki refers to the dissociation constant of the complex between target and ligand, obtained from inhibition or displacement. Read a low Ki as tighter binding. The compound `COc1ccc2c(c1)C(=O)N(c1ccc(N(C)C)cc1)C2=O` showed a Ki of 0.71 nM.

On to `CN(C)c1ccc(N2C(=O)c3ccccc3C2=O)cc1`, for which the Ki is 0.69 nM.

As to `CN(C)c1ccc(N2C(=O)c3ccc(F)cc3C2=O)cc1`, the affinity, expressed as Ki, was 0.56 nM.

Consider `COc1cc(N2C(=O)c3ccccc3C2=O)ccc1N(C)C`, for which the Ki is 0.66 nM.

With `COc1cc(N2C(=O)c3ccc(F)cc3C2=O)ccc1N(C)C`, the Ki was 0.78 nM.

`COc1cc(N2C(=O)c3ccc(Br)cc3C2=O)ccc1N(C)C` displayed a Ki of 0.42 nM.

As to `COc1ccc2c(c1)CN(c1ccc(N(C)C)cc1)C2=O`, the affinity, expressed as Ki, was 0.94 nM.

Regarding `CN(C)c1ccc(N2Cc3cc(F)ccc3C2=O)cc1`, the affinity corresponds to a Ki of 0.49 nM.

`CN(C)c1ccc(N2Cc3cc(Cl)ccc3C2=O)cc1` gave a Ki of 0.76 nM.

`Cc1ccc2c(c1)C(=O)N(c1ccc(N(C)C)cc1)C2`: the affinity, expressed as Ki, was 0.76 nM.

Compound `CN(C)c1ccc(N2Cc3ccc(Cl)cc3C2=O)cc1` had a Ki of 0.5 nM.

The compound `COc1cc(N2Cc3ccccc3C2=O)ccc1N(C)C` displayed a Ki of 0.9 nM.

The compound `COc1ccc(N2Cc3ccccc3C2=O)cc1N(C)C` came in with a Ki of 0.65 nM.

`CN(C)c1ccc(N2C(=O)c3ccc(N(C)C)cc3C2=O)cc1` came in with a Ki of 0.7 nM.

Compound `CN(C)c1ccc(N2Cc3ccc(F)cc3C2=O)cc1` registered a Ki of 0.93 nM.

Regarding `COc1cc(N2Cc3ccc(C)cc3C2=O)ccc1N(C)C`, the Ki amounted to 0.46 nM.

`COc1cc(N2C(=O)c3ccc(Cl)cc3C2=O)ccc1N(C)C`: the inhibition constant Ki is 0.7 nM.

On to `CN(C)c1cccc(N2Cc3ccccc3C2=O)c1`, for which the Ki is 0.57 nM.

Compound `CN(C)c1cccc(N2C(=O)c3ccccc3C2=O)c1` gave a Ki of 0.46 nM.

The compound `COc1ccc(N2C(=O)c3ccccc3C2=O)cc1N(C)C` displayed a Ki of 0.44 nM.

In turn, `CN(C)c1ccc(N2Cc3ccccc3C2=O)cc1` registered a Ki of 0.58 nM.

`CN(C)c1ccc(N2Cc3cc(Br)ccc3C2=O)cc1` registered an inhibition constant (Ki) of 0.81 nM.

Regarding `Cc1ccc2c(c1)C(=O)N(c1ccc(N(C)C)cc1)C2=O`, the affinity corresponds to a Ki of 0.5 nM.

On to `CC(C(=O)O)c1ccc(N2Cc3ccccc3C2=O)cc1` (stereo not given) [INDOPROFEN], for which the Ki came to 0.52 nM.

In turn, `CNc1ccc(-c2nc3ccc(O)cc3s2)cc1` [PITTSBURGH COMPOUND B UNLABELLED] registered a Ki of 0.7 nM.
